Legend:
adenylate cyclase = conditions: through activation of adenylate cyclase, thereby increasing cAMP levels; cited from earlier work
[1] = test system: Mouse, Cloudman S91 Melanoma Cell line; assay: Stimulation of melanin synthesis in cell culture (melanin content, OD 475 nm); assay type: cell-based; conditions: result in words; incubation 5-7 days at 37° C.; values only in FIG. 6
Excerpt: A Mouse, Cloudman S91 Melanoma Cell line (Clone M-3, ATCC CCL-53.1) was used. The cells were flown as monolayers. These cells multiply 7-8 fold in 7 days and are know to produce melanin in over 50% of the cells up to at least 33 passages. Horse serum, fetal Bovine serum, Penicillin-streptomycin and F-10 nutrient mixture were all obtained from Life Technologies (GIBCO, Grand Island, N.Y.). N^6 -Cyclopentyl-9-methyladenine (N-154) and C-102 (CPT) were obtained from RBI (Natick, Mass.). 1-Oleoyl-2-acetyl-rac-glycerol, activated charcoal, Triton X-100, phenyl methyl sulfonyl fluoride, theophylline, synthetic melanin and L-tyrosine-[Ring-3,5] were all obtained from Sigma Chemical Co. (St. Louis, Mo.). The culture medium used was Ham's F-10. The composition of the medium was as follows: Ham's F-10 Nutrient Mixture (82.5%), horse serum (15.0%), fetal bovine serum (2.5%), penecillin-streptomycin mixture (1.0%).
Cells were incubated with the indicated reagents (see FIG. 6) at 37° C. under 5% CO2 atmosphere for 5-7 days. At the time of harvest, exhausted medium was removed from flasks/wells and cells were treated with 1-5 mL of 0.25% trypsin for 2-3 minutes. […]
The pellet (from above extraction) was dissolved in 0.25 mL of 0.5 N NaOH and the optical density was measured at 475 nm. The melanin content was determined from a standard curve obtained by using a synthetic melanin.

melanoma cell lines = conditions: cited from earlier work

In the case of α-MSH, the melanin production (adenylate cyclase) is listed as “increase melanin production”.

For `Cn1cnc2c(NC3CCCC3)ncnc21` [N^6 -Cyclopentyl-9-methyladenine], the “stimulation of melanin synthesis” value [1] was “stimulation of melanin synthesis”.

In the case of `Cn1c(=O)c2[nH]cnc2n(C)c1=O` [Theophylline, theophylline], the stimulation of melanogenesis (melanoma cell lines) is given as “potent stimulator of melanogenesis”.

Reference: patent US5998423A, “Methods for modulating melanin production” (Therasys, Inc., priority 1997, dated 1999)
